Results: EP0154117B1 (dated 1985)

Key:
B6 Mice [1] = assay: Suppressor cells in treated mice: lymphocytes of treated mice added to a conventional MLC; type: in vivo, mouse; conditions: 3 mg/kg; lymphocytes obtained 5 weeks later; 1-5x10^6 cells added to MLC; dose related
[2] = system: alloreactive cytolytic T lymphocytes (CTL); assay: Induction of alloreactive cytolytic T lymphocytes (CTL) in MLC, 51Cr-release microcytotoxicity assay with P815 target cells; type: cell-based, mouse; conditions: for minimum doses required to cause a significant effect (CTL generation in MLC): compared to control CTL generated in drug-free MLC
B6 Lymphocytes [3] = assay: Proliferative responses of lymphocytes to Con A and LPS (3H-TdR incorporation); conditions: 1 to 10-^2 µg/ml
B6 Lymphocytes [4] = assay: Proliferative response of mouse lymphocytes to alloantigens in mixed lymphocyte cultures (MLC); type: cell-based; conditions: 10-^2 and 10^-4 µg/ml; one-way, 5-day MLC
B6 Mice [5] = assay: Immunosuppression in vivo: lymphocytes from treated mice stimulated in MLC and tested for CTL cytotoxicity; set-up: species or system mouse; conditions: for cytotoxicity of effector cells from treated mice: after 30 days of treatment

SMILES | effect of cells from drug treated mice on CTL generation by normal lymphocytes (B6 Mice [1]) | generation of CTL ([2]; 1 to 10-^4 µg/ml in MLC) | % lysis (CTL activity) ([2]; 10-^3 µg/ml added 2 days after setting up MLC, p < 0.001 vs control (% lysis = 52.0)) | % lysis (CTL activity) ([2]; 10-^3 µg/ml added at the same time as initiation of MLC, control % lysis = 52.0) | % lysis (CTL activity) ([2]; 10-^3 µg/ml added one day after initiation of MLC, control % lysis = 52.0) | generation of CTL ([2]; 10-^4 mcg/ml) | % lysis (CTL activity) ([2]; 10-^5 mcg/mi added to MLC, p < 0.01 vs control CTL (% lysis = 45.7), 5 days) | duration of the suppressive effect (suppression after removal of compound) ([2]; 10^-3 µg/ml, compound removed from 1 MLC each day by washing, CTL tested after five days) | proliferation of these cells (Con A or LPS stimulated) (B6 Lymphocytes [3]) | proliferation of B6 lymphocytes stimulated by D2 lymphocytes (B6 Lymphocytes [4]) | CTL generation of lymphocytes from treated mice (B6 Mice [5]; 0.3 mg/kg, day 23 post treatment) | CTL generation by lymphocytes from drug-treated mice (B6 Mice [5]; 3 mg/kg i.p., lymphocytes prepared 2 weeks later, 5-day MLC, all E:T ratios tested) | cytotoxicity of effector cells from treated mice (B6 Mice [5]; 0.3 and 0.75 mg/kg) | CTL activity of lymphocytes from treated mice (B6 Mice [5]; 0.3 to 3.0 mg/kg, day 10 after treatment) | cytotoxicity of effector cells from treated mice (B6 Mice [5]; 1.5 an 3.0 mg/kg) | minimum doses required to cause a significant effect (CTL generation in MLC) [2]
Cl.Cl.NCCNc1ccc(NCCN)c2c1C(=O)c1c(O)ccc(O)c1C2=O | significantly prevented normal lymphocytes from becoming effective CTL | complete failure to generate CTL | 22.0% | 2.7% | 6.4% | consistent failure to generate CTL | 37.0% | irreversible | completely abolished | significantly prevented | typical CTL generation was evident | failed to become effective CTL | normal level of cytotoxicity | no CTL activity | still unable to do so | 
COc1cccc2c1C(=O)c1c(O)c3c(c(O)c1C2=O)C[C@@](O)(C(=O)CO)C[C@@H]3O[C@H]1C[C@H](N)[C@H](O)[C@H](C)O1 [Adriamycin, reference compound] |  |  |  |  |  |  |  |  |  |  |  |  |  |  |  | 10^-1 µg/ml
Cl.Cl.O=C1c2c(O)ccc(O)c2C(=O)c2c(NCCNCCO)ccc(NCCNCCO)c21 [Novantrone^TM, reference compound] |  |  |  |  |  |  |  |  |  |  |  |  |  |  |  | 10^-3 µg/ml
